≈ marks a conversion by molar mass, not a printed value.
How the values were obtained:
Type in all cases: cell-based
[1] = tested on: herpes simplex virus Type 1 (HSV-1); assay: plaque reduction assay, HSV-1 in vero cells; conditions: Human alphaherpesvirus 1, BW^s strain, 48 hour incubation
Method: (§1) The compounds were evaluated for antiviral activity in vitro by the standard plaque reduction assay. Experiments were conducted with vero cells (African Green Monkey Kidney cells) infected with herpes simplex virus Type 1 (HSV-1) [BW^s strain, C. D. Sibrack et al., Infect. Dis., 1982, 146, 673] and herpes simplex virus Type 2 (HSV-2) [G strain, obtained from American Tissue Culture Collection, Rockville, MD] and with MRC-5 cells (human embryonic lung (diploid) cells) infected with human cytomegalovirus (HCMV) [AD169 strain, obtained from American Tissue Culture Collection, Rockville, MD]. Briefly, confluent cell monolayers in 24-well plates were infected with 30-50 plaque-forming units of virus in 100 »l of phosphate-buffered saline. After a 1 hour adsorption period, residual inoculum was replaced with 1 mL of the appropriate dilution of the test compound which had been freshly prepared in Eagle's minimal essential medium (EMEM) containing 10% fetal bovine serum. After a 48 hour incubation period at 37°C in a 5% CO₂ atmosphere, cell monolayers were fixed and stained with Carbol fuchsin and plaques were counted. The antiviral potency of the compound was determined by IC₅₀, the inhibitory concentration necessary to reduce the number of plaques by 50% of those in the virus control cultures.

[2] = tested on: herpes simplex virus Type 2 (HSV-2); assay: plaque reduction assay, HSV-2 in vero cells; conditions: Human alphaherpesvirus 2, G strain, 48 hour incubation
Method: as §1

[3] = tested on: human cytomegalovirus (HCMV); assay: plaque reduction assay, HCMV in MRC-5 cells; conditions: Human betaherpesvirus 5, MRC5, AD169 strain
Method: as §1

[4] = tested on: human immunodeficiency virus (LAVBRU strain); assay: anti-HIV XTT assay in infected CEM-SS cells; conditions: for anti-HIV activity (in words): XTT assay (FIGS. 4, 6, 7); for EC50: infected CEM-SS cells, XTT assay, day 7 post-infection, viable cells increased to 50% of uninfected control, NA = Not active at concentrations up to 500 µM, read-out: ED50 (the source's name); for SI: Selectivity Index: Ratio of TD50 to ED50, CEM-SS cells, 10080 min
Method: (§2) Compounds were evaluated for activity against human immunodeficiency virus (LAVBRU strain obtained from Luc Montagnier, Institut Pasteur, Paris, France) in CEM-SS cells (P. L. Nara et al., in AIDS Res. Human. Retroviruses, 1987, 3, 283-302) or in MT-4 cells (S. Harada, et al., in Science, 1985, 229, 563-566) using the XTT assay described by O. S. Weislow et al., in J. Natl. Cancer Instit., 1989, 81, 577-586. CEM-SS cells were obtained from Owen Weislow at the National Cancer Institute, and MT-4 cells were obtained from Doug Richman at the University of California at San Diego. Cells were exposed to HIV and cultured in microtiter plates in the presence of test compounds at concentrations of 0.0013, 0.0064, 0.032, 0.16, 0.8, 4, 20, 100, and 500 »M. On day 7 post-infection, the antiviral effect was measured using the XTT assay in which an optical density (OD) reading is obtained at each drug concentration. The optical density reading is proportional to the number of viable cells. Assays run in infected cells show the antiviral effect of the test compounds, where an increase in the number of viable cells (higher OD reading) reflects the protective, antiviral activity of the compound. Assays run in uninfected cells provide a measure of cellular toxicity. The antiviral effect is also expressed (see Table 2) as the concentration of compound which increases the number of viable cells in infected cultures to 50%, that of the untreated, uninfected control cultures (ED₅₀). The cellular toxicity is expressed as the concentration of compound which reduces the number of viable cells to 50%, that of the untreated control (TD₅₀). The selectivity index (SI) is the ratio of TD₅₀ to ED₅₀. The anti-HIV activity and cellular toxicity of the test compounds are plotted in FIGS. 1-7 as a function of optical density verus increasing log concentrations of the test compounds (XTT assay).

in vitro [5] = conditions: human, cem-ss cells
Method: as §2

CEM-SS cells = assay: in vitro
Method: as §2

[6] = tested on: human immunodeficiency virus (LAVBRU strain); assay: anti-HIV XTT assay in infected MT-4 cells; conditions: MT4 cells, XTT assay (FIG. 2)
Method: as §2, with “The antiviral effect is also expressed (see Table 2) as the concentration of compound which increases the number of viable cells in infected cultures to 50%, that of the untreated, uninfected control cultures (ED₅₀). The cellular toxicity is expressed as the concentration of compound which reduces the number of viable cells to 50%, that of the untreated control (TD₅₀). The selectivity index (SI) is the ratio of TD₅₀ to ED₅₀. The anti-HIV activity and cellular toxicity of the test compounds are plotted in FIGS. 1-7 as a function of optical density verus increasing log concentrations of the test compounds (XTT assay).” left out

in vitro [7] = conditions: human, mt-4 cells
Method: as §2, with “The antiviral effect is also expressed (see Table 2) as the concentration of compound which increases the number of viable cells in infected cultures to 50%, that of the untreated, uninfected control cultures (ED₅₀). The cellular toxicity is expressed as the concentration of compound which reduces the number of viable cells to 50%, that of the untreated control (TD₅₀). The selectivity index (SI) is the ratio of TD₅₀ to ED₅₀. The anti-HIV activity and cellular toxicity of the test compounds are plotted in FIGS. 1-7 as a function of optical density verus increasing log concentrations of the test compounds (XTT assay).” left out

[8] = Human immunodeficiency virus 1, 168 h

IC50 [1] [µg/mL]	IC50 [2] [µg/mL]	MNTC (in vitro [5]) [µM]	MCC at 168 h (in vitro [7]) [nM]	MNTC at 168 h (in vitro [7]) [µM]	Structure (SMILES)	IC50 [3] [µg/mL]	anti-HIV activity (in words) ([4]; CEM-SS cells)	CC50 (in vitro [5]) [µM]	EC50 [4, 8] [µM]	SI [4]	EC100 ([4]; Human immunodeficiency virus 1, 168 h, CEM-SS cells, XTT assay (FIGS. 3, 5), read-out: concentration giving complete protection from HIV) [µM]	cytotoxicity relative to (R)-2'-methyl-PMEG (CEM-SS cells)	CC50 (CEM-SS cells; human, cem-ss cells) [µM]	anti-HIV effect (in words) [6]
32 (≈ 100 µM)	32 (≈ 100 µM)	–	–	–	Nc1nc2c(ncn2C[C@H](CO)OCP(=O)(O)O)c(=O)[nH]1 [(R)-HPMPG, (R)-9-[3-hydroxy-2-(phosphonomethoxy)propyl]guanine]	0.5 (≈ 1.57 µM)	clearly inactive	> 500	500	>1	–	–	–	–
–	25 (≈ 82.4 µM)	< 100	–	–	C[C@@H](Cn1cnc2c(=O)[nH]c(N)nc21)OCP(=O)(O)O [(S)-2'-methyl-PMEG, (S)-9-[2-(phosphonomethoxy)propyl]guanine]	5 (≈ 16.5 µM)	active	300	12	25	100	–	–	–

More lines, now with the values behind:

Structure (SMILES)	IC50 [1] [µg/mL]	IC50 [2] [µg/mL]	MNTC (in vitro [5]) [µM]	MCC at 168 h (in vitro [7]) [nM]	MNTC at 168 h (in vitro [7]) [µM]	IC50 [3] [µg/mL]	anti-HIV activity (in words) ([4]; CEM-SS cells)	CC50 (in vitro [5]) [µM]	EC50 [4, 8] [µM]	SI [4]	EC100 ([4]; Human immunodeficiency virus 1, 168 h, CEM-SS cells, XTT assay (FIGS. 3, 5), read-out: concentration giving complete protection from HIV) [µM]	cytotoxicity relative to (R)-2'-methyl-PMEG (CEM-SS cells)	CC50 (CEM-SS cells; human, cem-ss cells) [µM]	anti-HIV effect (in words) [6]
Nc1nc2c(ncn2C[C@@H](CO)OCP(=O)(O)O)c(=O)[nH]1 [(S)-HPMPG, (S)-9-[3-hydroxy-2-(phosphonomethoxy)propyl]guanine]	8 (≈ 25.1 µM)	31 (≈ 97.1 µM)	–	–	–	0.9 (≈ 2.82 µM)	clearly inactive	350	–	–	–	–	–	–
Nc1nc2c(ncn2CCOCP(=O)(O)O)c(=O)[nH]1 [PMEG, 9-[2-(phosphonomethoxy)ethyl]guanine]	0.09 (≈ 0.311 µM)	0.31 (≈ 1.07 µM)	–	> 100	–	< 0.1	some anti-HIV effect	–	0.2	30	–	approximately 30 fold	15	no anti-HIV effect can be measured
C[C@H](Cn1cnc2c(=O)[nH]c(N)nc21)OCP(=O)(O)O [(R)-2'-methyl-PMEG, (R)-9-[2-(phosphonomethoxy)propyl]guanine]	–	25 (≈ 82.4 µM)	< 100	–	< 100	5 (≈ 16.5 µM)	active	> 500	1	–	–	–	–	–
